Data from publication PMC8582287 (International journal of antimicrobial agents, 2020).
Entries after “also recorded” stand apart in the source; their conditions may differ. Where two headings read alike, the source gives them in different places.

Legend:
[1] = test system: T. gondii oocyst infection; conditions: pregnant CD1 mice, ref [20]; cited from earlier work
pregnant BALB/c mice [2] = conditions: mouse, in vivo, 50 mg/kg/day
HepG2 (hepatocyte) cells = test: Cytotoxicity in HepG2 cells, Alamar Blue; assay type: cell-based, human; conditions: read-out: Cytotoxicity CC50 HEP-G2, 48h
[3] = test system: human foreskin fibroblasts (HFF); test: Cytotoxicity in human foreskin fibroblasts, Alamar blue; assay type: cell-based; conditions: read-out: Cytotoxicity CC50 HFF, 3 days, 0.0009-20 μM
pregnant BALB/c mice [4] = test: Assessment of BKI-interference in pregnancy in non-infected mice; conditions: for Offspring mortality (dead/born pups): 50 mg/kg/day oral gavage for 5 days, follow-up 14 days
[5] = test system: human Ether-à-go-go Related Gene (hERG); conditions: cited from earlier work
[6] = test system: zebrafish (Danio rerio) embryos; test: Zebrafish embryo development test with impact score Si; assay type: in vivo; conditions: for Embryo toxicity in the zebrafish assay (in words) / Lowest concentration exerting a negative Si: 0.2-50 μM; for Embryo toxicity in the zebrafish assay (in words): 96hpf; for Lowest concentration exerting a negative Si: zebrafish embryos, until 96h post fertilization; for Embryonal alterations observed during BKI-exposure: 24h, representative image
[7] = test system: CRL-8155 (lymphocyte) cells; test: Cytotoxicity in CRL-8155 cells, Alamar Blue; assay type: cell-based, human; conditions: read-out: Cytotoxicity CC50 CRL-8155, 48h
N. caninum tachyzoites [8] = conditions: read-out: Proliferation EC50 N.caninum, ref [25]; cited from earlier work
N. caninum tachyzoites [9] = conditions: read-out: Proliferation EC50 N.caninum
rats = conditions: when dosed in rats; no reference given; cited from earlier work
[10] = test system: Neospora-infected pregnant mice; conditions: 50mg/kg, ref [23]; cited from earlier work
[11] = 50 mg/kg/day oral gavage in corn oil for 5 days

| SMILES | CC50 (HepG2 (hepatocyte) cells) [µM] | CC50 [3] [µM] | Offspring mortality (dead/born pups) (pregnant BALB/c mice [4]) | Embryo toxicity in the zebrafish assay (in words) [6] | CC50 [7] [µM] | Fertility (pregnant/mated females) (pregnant BALB/c mice [4]; [11]) | EC50 (N. caninum tachyzoites [9]) [nM] | further results |
| --- | --- | --- | --- | --- | --- | --- | --- | --- |
| CCOc1ccc2cc(-c3nn(CC4CCN(C)CC4)c4ncnc(N)c34)ccc2c1 [BKI-1294] | > 40 | > 20 | 0/27 | very low embryo toxicity | > 40 |  |  | Offspring survival [1]: 100%; Overall number of pups born (pregnant BALB/c mice [2]): 27; Pups/dams (pregnant BALB/c mice [2]; po): 27/4; hERG inhibition in vitro ([5]; ref [24]): inhibited; Lowest concentration exerting a negative Si [6]: ≥ 40 µM; Lowest concentration exerting a negative Si ([6]; listed as 1294): 40 µM; EC50 (N. caninum tachyzoites [8]): 40 nM |
| CCOc1ccc2cc(-c3nn(CC4CCN(C)CC4)c4ncnc(N)c34)ccc2n1 [BKI-1369] | > 80 | > 20 | 0/31 | very low embryo toxicity | > 80 | 5/6 | 35 | Pups/dams (pregnant BALB/c mice [4]; [11]): 31/5 |
| CCOc1ccc2cc(-c3nn(C(C)(C)C)c(N)c3C(N)=O)cnc2c1 [BKI-1517] | > 40 | > 20 |  | high toxicity at all concentrations | > 40 | ^*2/7 | 269 | Change in mean arterial pressure (rats): significant change in mean arterial pressure; Neonatal mortality [10]: 100%; hERG inhibition in vitro ([5]; no reference given): did not inhibit; Embryonal alterations observed during BKI-exposure ([6]; 20 μM): tail curvature; also recorded: half-hatched embryo; Embryonal alterations observed during BKI-exposure ([6]; 50 μM): pericardial edema; Lowest concentration exerting a negative Si ([6]; listed as 1517): 0,2 μM; Lowest concentration exerting a negative Si ([6]; listed as -1517): 0.2 µM |
